Assay: molar heat capacity at constant pressure
Conditions: 101.33 kPa, Vacuum adiabatic calorimetry

CC(C)(C)c1ccc(-c2ccccc2)cc1 [4-(1,1-dimethylethyl)-1,1'-biphenyl]
Conditions | molar heat capacity at constant pressure [J/K/mol]
156.5 K, Crystal | 164.59
157.48 K, Crystal | 165.54
158.46 K, Crystal | 168.2
159.4 K, Crystal | 167.88
160.49 K, Crystal | 170.03
162.35 K, Crystal | 170.22
163.32 K, Crystal | 171.45
164.3 K, Crystal | 171.68
165.27 K, Crystal | 172.24
166.24 K, Crystal | 173.77
167.21 K, Crystal | 175.03
168.17 K, Crystal | 175.74
169.13 K, Crystal | 176.91
170.1 K, Crystal | 177.85
171.06 K, Crystal | 178.74
172.03 K, Crystal | 179.57
172.99 K, Crystal | 180.33
173.96 K, Crystal | 181.16
174.88 K, Crystal | 181.91
175.84 K, Crystal | 182.48
176.8 K, Crystal | 183.39
177.75 K, Crystal | 184.41
178.71 K, Crystal | 186.15
179.67 K, Crystal | 186.69
180.62 K, Crystal | 187.72
181.58 K, Crystal | 187.66
182.53 K, Crystal | 188.58
183.48 K, Crystal | 190.07
184.43 K, Crystal | 190.57
185.38 K, Crystal | 191.97
186.33 K, Crystal | 192.5
187.27 K, Crystal | 193.52
188.22 K, Crystal | 194.65
189.16 K, Crystal | 195.58
190.05 K, Crystal | 196.73
190.99 K, Crystal | 197.88
191.93 K, Crystal | 198.13
192.87 K, Crystal | 199.81
193.81 K, Crystal | 200.3
194.75 K, Crystal | 200.51
195.68 K, Crystal | 201.32
196.61 K, Crystal | 203.32
197.55 K, Crystal | 203.52
198.48 K, Crystal | 205.18
199.41 K, Crystal | 205.85
200.34 K, Crystal | 205.72
201.52 K, Crystal | 207.22
202.94 K, Crystal | 208.68
204.37 K, Crystal | 210.19
205.79 K, Crystal | 211.33
207.14 K, Crystal | 212.7
208.55 K, Crystal | 214.44
209.96 K, Crystal | 215.21
211.37 K, Crystal | 217.19
212.78 K, Crystal | 218.22
214.19 K, Crystal | 219.53
215.59 K, Crystal | 220.68
216.99 K, Crystal | 222.17
218.39 K, Crystal | 224.18
219.79 K, Crystal | 225.72
221.18 K, Crystal | 226.72
222.9 K, Crystal | 227.94
224.62 K, Crystal | 229.7
226 K, Crystal | 231.67
227.39 K, Crystal | 232.23
228.77 K, Crystal | 233.85
230.14 K, Crystal | 234.83
231.52 K, Crystal | 236.49
232.88 K, Crystal | 237.84
234.25 K, Crystal | 239.02
235.61 K, Crystal | 240.58
236.97 K, Crystal | 241.66
238.33 K, Crystal | 243.18
239.69 K, Crystal | 244.52
241.05 K, Crystal | 245.68
242.4 K, Crystal | 247.57
243.75 K, Crystal | 248.49
244.98 K, Crystal | 249.71
246.33 K, Crystal | 251.82
247.66 K, Crystal | 253.81
249 K, Crystal | 254.6
250.34 K, Crystal | 256.26
251.68 K, Crystal | 256.95
253.01 K, Crystal | 258.51
254.34 K, Crystal | 259.55
255.66 K, Crystal | 261.49
256.97 K, Crystal | 262.33
258.29 K, Crystal | 263.11
259.61 K, Crystal | 265.21
260.92 K, Crystal | 267.1
262.23 K, Crystal | 268.4
263.54 K, Crystal | 269.72
264.84 K, Crystal | 270.96
265.99 K, Crystal | 271.74
267.28 K, Crystal | 273.32
268.57 K, Crystal | 275.22
269.86 K, Crystal | 276.29
271.15 K, Crystal | 277.98
272.43 K, Crystal | 280.14
273.71 K, Crystal | 281.15
274.98 K, Crystal | 281.51
276.26 K, Crystal | 282.58
277.52 K, Crystal | 284.25
278.79 K, Crystal | 285.49
280.04 K, Crystal | 286.95
281.3 K, Crystal | 288.13
282.55 K, Crystal | 289.87
283.8 K, Crystal | 290.87
285.04 K, Crystal | 291.7
286.08 K, Crystal | 293.13
287.32 K, Crystal | 295.16
288.53 K, Crystal | 295.47
289.76 K, Crystal | 296.85
292.2 K, Crystal | 299.34
293.41 K, Crystal | 300.48
294.63 K, Crystal | 301.51
295.83 K, Crystal | 302.32
297.03 K, Crystal | 303.76
298.23 K, Crystal | 303.58
299.42 K, Crystal | 305.47
300.61 K, Crystal | 306.04
301.79 K, Crystal | 308.28
302.89 K, Crystal | 309.67
303.99 K, Crystal | 310.47
305.04 K, Crystal | 312.55
306.34 K, Crystal | 313.92
307.46 K, Crystal | 315.51
308.62 K, Crystal | 315.74
309.76 K, Crystal | 319.18
310.9 K, Crystal | 320.42
312.03 K, Crystal | 320.51
313.15 K, Crystal | 321.63
314.25 K, Crystal | 323.46
315.35 K, Crystal | 326.54
316.44 K, Crystal | 326.58
317.52 K, Crystal | 328.97
318.58 K, Crystal | 333.26
325.87 K, Liquid | 381
327.07 K, Liquid | 382.02
328.07 K, Liquid | 382.22
329.06 K, Liquid | 382.84
330.05 K, Liquid | 383.2
331.03 K, Liquid | 383.56
332.01 K, Liquid | 384.21
332.98 K, Liquid | 384.73
333.94 K, Liquid | 386.4
334.9 K, Liquid | 386.26
335.85 K, Liquid | 387.48
336.8 K, Liquid | 388
337.74 K, Liquid | 388.46
338.68 K, Liquid | 388.8
339.61 K, Liquid | 389.81
340.53 K, Liquid | 390.68
340.99 K, Liquid | 390.97
341.91 K, Liquid | 391.9
342.82 K, Liquid | 392.95
343.73 K, Liquid | 393.35
344.62 K, Liquid | 393.96
345.52 K, Liquid | 394.82
346.4 K, Liquid | 396.04
347.28 K, Liquid | 396.15
348.16 K, Liquid | 397.03
349.03 K, Liquid | 396.87
349.89 K, Liquid | 397.86
350.75 K, Liquid | 398.4
351.6 K, Liquid | 397.8
352.45 K, Liquid | 397.92
354.12 K, Liquid | 401.27
354.41 K, Liquid | 401.25
355.24 K, Liquid | 400.85
356.06 K, Liquid | 400.95
356.87 K, Liquid | 401.61
357.67 K, Liquid | 402.4
358.47 K, Liquid | 402.62
359.27 K, Liquid | 402.51
360.06 K, Liquid | 402.5
360.84 K, Liquid | 404.15
361.61 K, Liquid | 405.1
362.38 K, Liquid | 405.27
363.15 K, Liquid | 406.09
363.91 K, Liquid | 406.9
364.66 K, Liquid | 406.47
365.41 K, Liquid | 407.47
366.15 K, Liquid | 407.61
366.27 K, Liquid | 407.63
367.01 K, Liquid | 406.87
367.73 K, Liquid | 408.31
368.45 K, Liquid | 410.51
369.17 K, Liquid | 410.57
369.88 K, Liquid | 409.74
370.58 K, Liquid | 410.84

— the NIST ThermoML archive (doi:10.1016/j.jct.2010.05.002)
